Assay results as given in paper PMC10635480, “An engineered thermally tolerant apo-cytochrome scaffold for metal-less incorporation of heme derivative” (PLOS ONE, 2023).

Key:
[1] = molecular target: T1, rC552 C14A (cytochrome c552, apo-form) (Thermus thermophilus, UniProt Q5SME3, C31A); test: time-dependent UV-Vis reconstitution; format: binding; settings: equimolar 5 uM, 25 °C
T1 construct: gene cycA; recombinant, E. coli BL21(DE3), pET-rC552 C14A; no tag mentioned; heme-free apo-form isolated by butyl-Sepharose

[2] = molecular target: T2, rC552 C14A (cytochrome c552, apo-form) (Thermus thermophilus, UniProt Q5SME3, C31A/M86F); format: binding
T2 construct: gene cycA; recombinant, E. coli BL21(DE3), pET-rC552 C14A; no tag mentioned; heme-free apo-form isolated by butyl-Sepharose
T2 sequence (Q5SME3 18-148 C31A/M86F): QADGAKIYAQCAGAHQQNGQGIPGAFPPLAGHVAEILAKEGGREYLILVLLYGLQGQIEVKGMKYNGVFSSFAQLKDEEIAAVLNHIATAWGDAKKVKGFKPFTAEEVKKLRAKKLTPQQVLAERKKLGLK

T1 sequence (Q5SME3 18-148 C31A): as the sequence (Q5SME3 18-148 C31A/M86F) above, with F69M counted along it

C=CC1=C(C)c2cc3[nH]c(cc4nc(cc5[nH]c(cc1n2)c(C)c5CCC(=O)O)C(CCC(=O)O)=C4C)c(C)c3C=C [protoporphyrin IX (metal-free)]
time-dependent UV-Vis reconstitution [1]: Time-dependent UV–Vis spectra show a rather slow reconstitution process while mixing equal concentrations
Tm of reconstituted protein (not dTm) [2]: 58 °C
